One series deals with JNK. Put plainly: JNK activity in vitro. It counts as biochemical. Particulars: data not shown.
For another series, the system named is PC12 cells. Put plainly: PC12 cell death induced by chemotherapeutic drugs (LDH assay). The series is classed as cell-based. The method, then:
FIG. 3 is a graph showing that compound 1 inhibits JNK-dependent cell death induced by chemotherapeutic drugs. Cells were infected with AdNRG at 5 MOI or treated with paclitaxel, cisplatin, or doxorubicin (Dox) at the indicated μM concentrations. At the time of treatment, compound 1 or vehicle was added to the cultures, as indicated. After 40 hours, cells were assayed for death using the LDH assay. Results are normalized relative to those obtained with 1% Triton (Tx), and represent the mean±standard deviation of a representative experiment performed in triplicate (*=P<0.01 relative to 0 μM compound 1 for each insult). Experiments were performed twice with identical results.
The ability of compound 1 to inhibit apoptosis in response to a variety of other insults, including the DNA damaging agent, cisplatin, the microtubule disruptor, paclitaxel, and doxorubicin, a topoisomerase inhibitor was investigated. […] Cisplatin-induced apoptosis has been reported to be JNK-dependent when used at low concentrations (10 μM), but JNK-independent at concentrations >25 μM (Sanchez-Perez and Perona, 1999) and consistent with this, compound 1 protected cells exposed to 10 μM, but not 50 μM, cisplatin (FIG. 3).
(§1) Cell culture, infection, transfection and immunoblotting. Sympathetic neurons were maintained and deprived of NGF as previously described (Bamji et al., 1998; Ma et al., 1992). PC12^rtTA cells were maintained and infected as previously described (Majdan et al., 1997; Salehi et al., 2002); for NRAGE, […] doxycycline was added to all plates at time of infection. Wildtype and HSF1 nullizygous immortalized mouse embryonic fibroblasts (MEFs) were maintained in DMEM containing 10% fetal calf serum, 1 μM β-mercaptoethanol, 1% non-essential amino acids, 1% L-glutamine, 1% antimycotic solution and 1% sodium pyruvate (all from GibcoBRL). Sympathetic neuron survival was assessed using the MTS assay according to the manufacturer's instructions (Promega). Analysis of PC12 cell death was determined using a lactate dehydrogenase (LDH) assay (Roche) as per the manufacturer's instructions. Transfections using plasmids or RNAi were performed using Lipofectamine 2000. Immunoblotting was performed as previously described (Majdan et al., 1997; Salehi et al., 2002).

The next series concerns HSP90. The series can be described thus: Compound 6-bead pulldown of purified HSP90. The series is classed as binding. Particulars: competing compound at 80 μM. On the procedure:
FIGS. 5B and 5C are photographs of Western blots showing that compound 1 binds HSP90 and causes HSF1-dependent expression of HSP70 and HSP25. A: Wild-type or HSF1 null MEFs were transfected with pGL3B-HSP70, an HSP70 promoter reporter construct, or parental vector (pGL3B), then treated with 40 μM of compound 1 for 24 hours and analyzed for luciferase content as described in Materials and Methods (*=P<0.005 relative to 0 compound 1; **=P<0.005 relative to wild-type MEFs treated with 40 uM compound 1. B: Wild-type or HSF1 null MEFs were treated with increasing concentrations of compound 1 for 24 hours, cells were lysed, normalized for protein content, and analyzed for levels of HSP70, HSP40, and HSP25 as indicated. C: Compound 6-conjugated Sepharose beads were incubated with purified HSP90 for 2 hours, washed, and levels of bound HSP90 were analyzed by immunoblot. Con=Control beads, Alone=Compound 6-beads alone, Comp=[…]+competing compound 1 (at 80 μM). Experiments in Panel A-C were performed three times with identical results.
Compound 6 was coupled with Affi-Gel 10 beads (BioRad) and used as an affinity reagent in pulldown experiments. Beads were incubated either with whole cell lysates or with purified HSP90, washed extensively, and bound proteins were then eluted and analyzed by SDS-PAGE and immunoblotting. […]

The next series has as its system SCG neurons. Put plainly: NGF-withdrawal induced cell death of SCG neurons (MTS assay). The series is classed as cell-based, rat. Particulars: SCG neurons withdrawn from NGF, 48 hours. The method, then:
FIG. 1 is a graph showing that compound 1 inhibits NGF-withdrawal induced cell death. Cultures of rat SCG neurons (see Materials and Methods) initially maintained in 10 ng/ml of NGF were withdrawn from NGF and maintained in media containing compound 1 at the concentrations indicated for 48 hours. Cellular viability was assayed using an MTS assay. (*=P<0.01 relative to no compound 1). Experiments were performed three times with identical results.
Survival of neonatal primary sympathetic neurons is dependent on trophic support provided by Neuronal Growth Factor (NGF) (reviewed in (Young et al., 2004)).
as §1
Background: Tetrazolium assays rely on reduction of a dye to a coloured formazan, in cell work by metabolically active cells.

A further series has as its system PC12^rtTA cells. The series can be described thus: p75NTR- or NRAGE-induced cell death of PC12rtTA cells (LDH release assay). The series is classed as cell-based. Particulars: for protection from Adp75- or AdNRG-induced cell death: increasing concentrations, LDH. The method, then: FIGS. 2A and 2B are graphs showing that compound 1 inhibits p75NTR or NRAGE induced JNK activation and cell death. Compound 1 inhibits NRAGE (A) or p75NTR (B) mediated cell death. PC12^rtTA cells were infected with recombinant adenoviruses expressing full-length NRAGE (AdNRG) at 5 MOI, full length p75NTR (Adp75) at 50 or 100 MOI, or the control protein β-galactosidase (AdLacZ) (at 5 MOI in (A) and 50 MOI in (B)). At time of infection, the cells were treated with an increasing concentration of compound 1, or with vehicle alone, as indicated. After 40 hours, cells were assayed for death using the lactate dehydrogenase (LDH) assay; untreated cells (Un) and cells treated with 1% Triton X-100 (Tx) were used to delineate the output range of the assay. Results are normalized relative to those obtained with 1% Triton (Tx), and represent the mean±standard deviation of a representative experiment performed in triplicate (*=P<0.005 relative to no compound 1).
PC12^rtTA were infected with adenoviruses encoding p75NTR (Adp75), NRAGE (AdNRG), or as a control, LacZ (AdLacZ), and were concurrently exposed to increasing concentrations of compound 1 for a period of 40 hours. Cell death was assessed using an LDH release assay. […] Treatment with 40 μM compound 1 reduced p75NTR- or NRAGE-induced cell death by greater than 90%.
as §1

“Also recorded” adds a separate entry of the source.

`NS(=O)(=O)c1nn2cc(-c3ccccc3)nc2s1` [Compound 1]: the “effect on JNK activity in vitro” value in the series with JNK is “no effect”. In addition, the “protection against cisplatin-induced cell death” value is recorded as “protected” in the series with PC12 cells (cisplatin 10 μM) and “not 50 μM” in the series on PC12 cells (cisplatin 50 μM). Also, in the series with PC12 cells (doxorubicin), the “protection against doxorubicin-induced cell death” value is “did not offer any protection”. Further, the “apoptosis induced by paclitaxel” value in the series with PC12 cells (paclitaxel 10 μM and 50 μM) is reported as “effectively reduced”. Moreover, the “effect of excess unbound compound on compound 6-bead:HSP90 interaction” value with HSP90 is “strongly attenuated”. For the same compound, the “protection from NGF-withdrawal induced cell death” value in the series on SCG neurons was “protected; also recorded: inhibits”. Further, the “reduction of p75NTR- or NRAGE-induced cell death” value with PC12^rtTA cells (40 μM, 40 hours, LDH release) is given as “greater than 90%”. Further, in the series on PC12^rtTA cells (80 μM), the “toxic effect in cells infected with the LacZ control” value is reported as “slight toxic effect”. In the series with PC12^rtTA cells (80 μM (highest concentration tested)), the “inhibition of p75NTR- or NRAGE-induced apoptosis” value is “effectively inhibited apoptosis”. In the series with PC12^rtTA cells (40 hours), the “protection from Adp75- or AdNRG-induced cell death” value is on record as “strongly attenuated; also recorded: protected”.

Take `NS(=O)(=O)c1nn2cc(-c3ccc(N4CCOCC4)cc3)nc2s1` [Compound 2]: the “protection from NGF-withdrawal induced cell death” value in the series on SCG neurons was “protected”. The “protection from Adp75- or AdNRG-induced cell death” value with PC12^rtTA cells (40 hours) was “protected”.

The values are drawn from patent US20090179638A1, “ASSAY FOR IDENTIFYING INHIBITORS OF NEURONAL APOPTOTIC PATHWAYS” (AEGERA THERAPEUTICS INC., priority 2006, published 2009).
